The source of these data is patent publication US7897591B2, “Method of treating fatty liver disease” (priority 2005, dated 2011).

Series [1] concerns C57BL/6 mice. The series is described as follows: Liver histology (H&E, PAS, Oil Red O) in fat-free high carbohydrate diet (HCD) mouse model of hepatic steatosis. Type of series: in vivo. Conditions: HCD+MAR mice, 100 mg/kg twice daily, 19 days. As for the experimental part:
Experiments were performed on 5-6 week-old C57BL/6 mice (Jackson Laboratories, Bar Harbor, Me.). The animals, in groups of five, were housed in a barrier room and were acclimated to their environment for at least 72 hours prior to the initiation of each experiment. Animal protocols complied with the NIH Animal Research Advisory Committee guidelines and were approved by the Children's Hospital Boston Animal Care and Use Committee. Control animals (n=5) received normal chow and water ad libitum. All animals in the experimental groups were fed a fat-free, high carbohydrate liquid diet (HCD) ad libitum placed in one bottle per cage as previously described (3, 62). No additional sources of nutrition or hydration were provided. The HCD liquid solution contained 20% dextrose, a commercial mixture of 2% essential and nonessential amino acids (TrophAmine, B. Braun Medical, Irvine, Calif.), 2 ml trace elements (Trace Elements Injection 4, USP-Pediatric, American Regent Shirley, N.Y.), and 5 ml multivitamins (M.V.I. PediatricTM, Mayne Pharma, Paramus, N.J.). Each liter of HCD contained 30 meq sodium, 20 meq potassium chloride, 15 meq calcium, 10 meq magnesium, and 10 mM phosphate. The bottles were replaced daily with fresh HCD solution. HCD animals (n=5) received HCD only and no additional treatment for 19 days. The HCD+MAR animals (n=15) additionally received 100 mg/kg of MarimastatTM in 0.45% methylcellulose (Sigma-Aldrich Corporation, St. Louis, Mo.) vehicle twice daily via orogastric gavage. The animals were individually weighed every third day and at sacrifice. We then performed a midline laparotomy to observe, excise, and weigh the liver. Approximately one half of the liver was fixed in 10% formalin at 4° C. overnight, washed with phosphate buffered saline, and then embedded in paraffin. After cutting 5 μm sections, slides were stained at the Department of Pathology, Children's Hospital Boston with H&E to examine cellular architecture and lipid accumulation, and with periodic acid-Schiff (PAS) to identify the presence of glycogen. Another portion of the liver was collected as frozen sections, placed in embedding medium (Optimal Cutting Temperature OCT, […], Torrance, Calif.), and immersed in cold 2-methylbutane (Aldrich, Milwaukee, Wis.) on dry ice. The samples were stored at […]. Sections were stained at the Department of Pathology, Children's Hospital Boston with Oil Red O to detect fat.

In series [2] the test system is C57BL/6 mice. The series is described as follows: Serum liver function tests (AP, ALT, total and direct bilirubin) in HCD mouse model. It counts as in vivo. As for the experimental part:
Experiments were performed on 5-6 week-old C57BL/6 mice (Jackson Laboratories, Bar Harbor, Me.). The animals, in groups of five, were housed in a barrier room and were acclimated to their environment for at least 72 hours prior to the initiation of each experiment. Animal protocols complied with the NIH Animal Research Advisory Committee guidelines and were approved by the Children's Hospital Boston Animal Care and Use Committee. Control animals (n=5) received normal chow and water ad libitum. All animals in the experimental groups were fed a fat-free, high carbohydrate liquid diet (HCD) ad libitum placed in one bottle per cage as previously described (3, 62). No additional sources of nutrition or hydration were provided. The HCD liquid solution contained 20% dextrose, a commercial mixture of 2% essential and nonessential amino acids (TrophAmine, B. Braun Medical, Irvine, Calif.), 2 ml trace elements (Trace Elements Injection 4, USP—Pediatric, American Regent Shirley, N.Y.), and 5 ml multivitamins (M.V.I. Pediatric™, Mayne Pharma, Paramus, N.J.). Each liter of HCD contained 30 meq sodium, 20 meq potassium chloride, 15 meq calcium, 10 meq magnesium, and 10 mM phosphate. The bottles were replaced daily with fresh HCD solution. HCD animals (n=5) received HCD only and no additional treatment for 19 days. The HCD+MAR animals (n=15) additionally received 100 mg/kg of Marimastat™ in 0.45% methylcellulose (Sigma-Aldrich Corporation, St. Louis, Mo.) vehicle twice daily via orogastric gavage. The animals were individually weighed every third day and at sacrifice. Mice were anesthetized with 300 μl of 2.5% Avertin (Tribromoethanol, Sigma-Aldrich Corporation, St. Louis, Mo.) by intraperitoneal injection. Approximately 400 μl of blood was collected from each mouse via retro-orbital puncture. The specimens were then placed into serum separator tubes (Becton Dickinson, Franklin Lakes, N.J.), and centrifuged at 4° C. at 8000 rpm for 10 minutes to separate serum. Serum was frozen at −80° C. and delivered to the Clinical Laboratory at Children's Hospital Boston for measurement of aspartate aminotransferase (AST), alanine aminotransferase (ALT), alkaline phosphatase (AP), and total (TB) and direct bilirubin (DB) levels. Furthermore, a fatty acid profile was performed on these samples and TNF-α soluble receptor II levels were determined as described below.

On to `CNC(=O)[C@@H](NC(=O)[C@H](CC(C)C)[C@H](O)C(=O)NO)C(C)(C)C` [Marimastat], for which, in series [1], the “H&E inflammatory changes / necrosis” value is “occasional focal cellular infiltrates consistent with focal necrosis”; the “Oil Red O staining (fat in liver)” value is “minimal presence of fat”; the “PAS staining (glycogen storage)” value is “highly positive, granular, and widespread”; the “steatosis on H&E sections” value is on record as “No definitive steatosis”. The total bilirubin level result in series [2] (HCD+MAR group compared to HCD-only group) is recorded as “significantly lower”. Further, in series [2] (HCD+MAR group vs HCD-only, P<0.001), the “serum alanine amino transferase (ALT) level” value is given as “lower”. Moreover, in series [2] (HCD+MAR group, P<0.001), the “serum alkaline phosphatase (AP) level” value was “significantly lower”. Besides, the “direct bilirubin (DB) level” value in series [2] (all 15 mice in HCD+MAR group, P<0.001) is 0.
